Test results as given in the NIST ThermoML archive (doi:10.1016/j.fluid.2008.09.004).
± gives the expanded uncertainty stated by the source.

Columns and labels:
[1] = molar heat capacity at constant pressure; xn = mol fraction of the nth substance listed; details: 101 kPa, Liquid, Small sample (50 mg) DSC
[2] = excess molar enthalpy (molar enthalpy of mixing); xn = mol fraction of the nth substance listed; details: 303.15 K, 101 kPa, Liquid, Calvet calorimetry
[3] = xn = mol fraction of the nth substance listed; details: 101 kPa, Liquid, Vibrating tube method

CCCCCCn1cc[n+](C)c1.F[B-](F)(F)F [1-hexyl-3-methylimidazolium tetrafluoroborate] + CCO
Details	mass density, [3] [kg/m3]	molar heat capacity at constant pressure, [1] [J/K/mol]
293.15 K, x1 = 0.1052	904.3 ± 0.3	152 ± 2.4
293.15 K, x1 = 0.2011	969.7 ± 0.2	184.5 ± 2.9
293.15 K, x1 = 0.2832	1009.1 ± 0.2	209.9 ± 3.3
293.15 K, x1 = 0.3846	1045.5 ± 0.2	240.4 ± 3.7
293.15 K, x1 = 0.4943	1075.1 ± 0.2	272.3 ± 4.2
293.15 K, x1 = 0.5486	1086.6 ± 0.2	288 ± 4.5
293.15 K, x1 = 0.6882	1111.6 ± 0.3	328.8 ± 5.1
293.15 K, x1 = 0.7748	1124 ± 0.3	–
293.15 K, x1 = 0.7879	–	358.6 ± 5.6
293.15 K, x1 = 0.7988	1127.1 ± 0.3	–
293.15 K, x1 = 0.8521	1133.6 ± 0.3	–
293.15 K, x1 = 0.8791	–	387.1 ± 6
298.15 K, x1 = 0.1052	900.2 ± 0.3	153.6 ± 2.4
298.15 K, x1 = 0.2011	965.8 ± 0.2	185.9 ± 2.9
298.15 K, x1 = 0.2832	1005.2 ± 0.2	211.4 ± 3.3
298.15 K, x1 = 0.3846	1041.7 ± 0.2	241.8 ± 3.7
298.15 K, x1 = 0.4943	1071.4 ± 0.2	273.8 ± 4.2
298.15 K, x1 = 0.5486	1082.9 ± 0.2	289.7 ± 4.5
298.15 K, x1 = 0.6882	1108 ± 0.3	330.9 ± 5.1
298.15 K, x1 = 0.7748	1120.5 ± 0.3	–
298.15 K, x1 = 0.7879	–	360.8 ± 5.6
298.15 K, x1 = 0.7988	1123.6 ± 0.3	–
298.15 K, x1 = 0.8521	1130.1 ± 0.3	–
298.15 K, x1 = 0.8791	–	389.4 ± 6
303.15 K, x1 = 0.1052	896.2 ± 0.3	155 ± 2.4
303.15 K, x1 = 0.2011	961.8 ± 0.2	187.3 ± 2.9
303.15 K, x1 = 0.2832	1001.4 ± 0.2	212.8 ± 3.3
303.15 K, x1 = 0.3846	1037.9 ± 0.2	243 ± 3.8
303.15 K, x1 = 0.4943	1067.7 ± 0.2	275.2 ± 4.3
303.15 K, x1 = 0.5486	1079.3 ± 0.2	291.3 ± 4.5
303.15 K, x1 = 0.6882	1104.4 ± 0.3	332.9 ± 5.2
303.15 K, x1 = 0.7748	1117 ± 0.3	–
303.15 K, x1 = 0.7879	–	363 ± 5.6
303.15 K, x1 = 0.7988	1120.1 ± 0.3	–
303.15 K, x1 = 0.8521	1126.6 ± 0.3	–
303.15 K, x1 = 0.8791	–	391.6 ± 6.1
308.15 K, x1 = 0.1052	892.1 ± 0.3	156.6 ± 2.4
308.15 K, x1 = 0.2011	957.9 ± 0.2	188.6 ± 2.9
308.15 K, x1 = 0.2832	997.6 ± 0.2	214.1 ± 3.3
308.15 K, x1 = 0.3846	1034.2 ± 0.2	244.4 ± 3.8
308.15 K, x1 = 0.4943	1064 ± 0.2	276.7 ± 4.3
308.15 K, x1 = 0.5486	1075.6 ± 0.2	293 ± 4.5
308.15 K, x1 = 0.6882	1100.9 ± 0.3	334.9 ± 5.2
308.15 K, x1 = 0.7748	1113.5 ± 0.3	–
308.15 K, x1 = 0.7879	–	365 ± 5.7
308.15 K, x1 = 0.7988	1116.6 ± 0.3	–
308.15 K, x1 = 0.8521	1123.1 ± 0.3	–
308.15 K, x1 = 0.8791	–	393.9 ± 6.1
313.15 K, x1 = 0.1052	888 ± 0.3	158.1 ± 2.5
313.15 K, x1 = 0.2011	954 ± 0.2	189.9 ± 2.9
313.15 K, x1 = 0.2832	993.7 ± 0.2	215.4 ± 3.3
313.15 K, x1 = 0.3846	1030.4 ± 0.2	245.7 ± 3.8
313.15 K, x1 = 0.4943	1060.4 ± 0.2	278.1 ± 4.3
313.15 K, x1 = 0.5486	1072 ± 0.2	294.6 ± 4.6
313.15 K, x1 = 0.6882	1097.4 ± 0.3	336.9 ± 5.2
313.15 K, x1 = 0.7748	1110 ± 0.3	–
313.15 K, x1 = 0.7879	–	367.1 ± 5.7
313.15 K, x1 = 0.7988	1113.1 ± 0.3	–
313.15 K, x1 = 0.8521	1119.7 ± 0.3	–
313.15 K, x1 = 0.8791	–	396.1 ± 6.1
318.15 K, x1 = 0.1052	883.9 ± 0.3	159.8 ± 2.5
318.15 K, x1 = 0.2011	950 ± 0.2	191.2 ± 3
318.15 K, x1 = 0.2832	989.8 ± 0.2	216.7 ± 3.4
318.15 K, x1 = 0.3846	1026.7 ± 0.2	247.1 ± 3.8
318.15 K, x1 = 0.4943	1056.7 ± 0.2	279.6 ± 4.3
318.15 K, x1 = 0.5486	1068.4 ± 0.2	296.2 ± 4.6
318.15 K, x1 = 0.6882	1093.8 ± 0.3	338.9 ± 5.3
318.15 K, x1 = 0.7748	1106.5 ± 0.3	–
318.15 K, x1 = 0.7879	–	369 ± 5.7
318.15 K, x1 = 0.7988	1109.6 ± 0.3	–
318.15 K, x1 = 0.8521	1116.2 ± 0.3	–
318.15 K, x1 = 0.8791	–	398.3 ± 6.2

[2]
Details	excess molar enthalpy [kcal/mol]
x1 = 0.101	0.322 ± 0.0263
x1 = 0.2037	0.489 ± 0.0382
x1 = 0.3018	0.576 ± 0.0454
x1 = 0.3977	0.614 ± 0.0502
x1 = 0.4988	0.592 ± 0.0478
x1 = 0.6045	0.522 ± 0.0406
x1 = 0.6901	0.443 ± 0.0359
x1 = 0.7932	0.314 ± 0.0263
x1 = 0.8733	0.203 ± 0.0163
